Experimental findings from patent US9045650B2, “Polymer with salt groups and antifouling coating composition comprising said polymer” (AKZO NOBEL COATINGS INTERNATIONAL B.V., priority 2008, dated 2015) are described below.

This data set can be described thus: Salt formation of monomeric salts analysed by spectroscopic methods (IR, 1H NMR) and observation on mixing. The format is physicochemical. Particulars: solid sample, ATR. How it is done: The monomeric salt was analysed using infra-red (IR) spectroscopy (solid sample analysis using Avatar 360 infra-red spectrometer with Golden Gate diamond ATR attachment).
In an effort to further illustrate the relationship between acid/base pKa and the stability of the resulting polymer, a series of monomeric salts was prepared and analysed by spectroscopic methods.
Each of the monomeric salts were prepared by mixing the constituent acid/base starting materials in methanol at a concentration of 1.968 M. Following the addition of the acid/base starting materials, the mixture was stirred at room temperature for 24 h. The monomeric salt was then isolated by evaporation of the solvent.
^1H NMR spectroscopy was carried out on a CDCl3 solution of the monomeric salt (0.0827 M). Peaks associated with resonances for both CH2 groups present in the DMAEMA moiety were seen to shift downfield in the spectrum of this sample when compared to the reference spectrum of the DMAEMA starting material (CH2—CH2—NMe2 δ 4.25 shifted to δ 4.6 and CH2—CH2—NMe2 δ 2.6 shifted to δ 3.5). […] This is attributed to the change in the chemical environment of the CH2 resonances as a result of the complete protonation of the neighbouring NMe2 moiety.

In the case of `C=C(C)C(=O)NCCCN(C)C.CCCCCCCCCCCCCCCC(=O)O` [Comparative Example A (monomeric salt)], the “salt formation by IR spectroscopy” value was “incomplete salt formation”.

In the case of `C=C(C)C(=O)NCCCN(C)C.CCCCCC(=O)O` [Comparative Example C], the “salt formation by IR spectroscopy” value was “incomplete salt formation”.
